Like-named read-outs stand apart in the source and are kept apart here.
Tests used:
[1] = molecular target: T1, human CYP2E1 (Supersomes) (Homo sapiens, UniProt P05181); conditions: recombinant enzyme, pH 7.4
CYP2E1 [2] = molecular target: T2, CYP2E1 (Homo sapiens, UniProt P05181)
CYP2E1 [3] = molecular target: T2, CYP2E1; experiment: in vitro; conditions: recombinant enzyme, pH 7.4
[4] = molecular target: T3, CYP2E1 in human liver microsomes (HLM150) (Homo sapiens, UniProt P05181); conditions: pH 7.4
CYP2E1 [5] = molecular target: T2, CYP2E1; experiment: in vitro; conditions: microsomes, pH 7.4
[6] = molecular target: T4, CYP2E1 activity with HLM150 (Homo sapiens, UniProt P05181)
[7] = molecular target: T3, CYP2E1 in human liver microsomes (HLM150)
CYP2E1 [8] = molecular target: T2, CYP2E1; experiment: Steady-state inhibition kinetics of 4-nitrophenol oxidation, CYP2E1 Supersomes; conditions: for Ki: Ki,ap, apparent, catalytic site, 95% CI in parentheses; for Mechanism: most probable inhibition mechanism among 10 models
[9] = molecular target: T4, CYP2E1 activity with HLM150; experiment: Steady-state inhibition kinetics of 4-nitrophenol oxidation, HLM150
CYP2E1 [10] = molecular target: T2, CYP2E1; conditions: human, microsomes, pH 7.4
[11] = molecular target: T1, human CYP2E1 (Supersomes)
CYP2E1 [12] = molecular target: T2, CYP2E1; conditions: human, recombinant enzyme, pH 7.4
CYP2E1 [13] = conditions: CYP2E1 Supersomes; ref Hartman et al., 2012; cited from earlier work

T2 sequence (P05181 whole entry): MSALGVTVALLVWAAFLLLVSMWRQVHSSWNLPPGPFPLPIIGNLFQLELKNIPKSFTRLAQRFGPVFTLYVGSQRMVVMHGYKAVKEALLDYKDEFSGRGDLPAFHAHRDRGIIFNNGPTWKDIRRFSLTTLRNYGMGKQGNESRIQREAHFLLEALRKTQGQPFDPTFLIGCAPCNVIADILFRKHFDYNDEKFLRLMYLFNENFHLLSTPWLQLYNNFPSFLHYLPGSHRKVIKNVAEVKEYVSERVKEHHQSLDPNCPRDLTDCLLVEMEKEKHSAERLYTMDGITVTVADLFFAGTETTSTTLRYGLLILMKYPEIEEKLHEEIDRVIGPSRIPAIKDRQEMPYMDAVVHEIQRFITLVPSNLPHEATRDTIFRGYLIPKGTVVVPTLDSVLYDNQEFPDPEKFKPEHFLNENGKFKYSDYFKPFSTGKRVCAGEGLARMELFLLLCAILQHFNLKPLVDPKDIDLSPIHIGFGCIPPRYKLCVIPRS
T3 sequence (P05181 whole entry): as above
T4 sequence (P05181 whole entry): as above
T1 sequence (P05181 whole entry): as above

Structure (SMILES)	IC50 [1]	Mechanism (CYP2E1 [2])	Ki,ap (CYP2E1 [2]; recombinant enzyme)	activity at 30 min (CYP2E1 [3])	IC50 [4]	activity at 30 min (CYP2E1 [5])	Ki,ap [6]	Mechanism [6]	IC50 at 30 min (CYP2E1 [3])	IC50 [7]	Ki (CYP2E1 [8])	Ki [9]	activity at 30 min (CYP2E1 [10])	Mechanism (CYP2E1 [8])	IC50 [11]	activity at 30 min (CYP2E1 [12])	Ks (high affinity apparent binding constant during styrene metabolism) (CYP2E1 [13])	Ki ([9]; Ki,ap, HLM150, apparent, catalytic site, 95% CI in parentheses)	Ki ([9]; Ksi,ap, HLM150, apparent, cooperative site, 95% CI in parentheses)
OCC(O)c1ccccc1 (racemic) [R/S-Styrene glycol, (R/S)-1,2-phenylethanediol]	13 000 (2800–23 000) μM	Competitive	29 000 (19 000–52 000) μM	9.2%	14 000 (6600–21 000) μM	18%	17 000 (15 000–19 000) μM	Competitive											
C=Cc1ccc(O)cc1 [4-Vinylphenol, 4-vinylphenol]		Mixed cooperative substrate		16%		19%			24 µM	38 µM	47 µM	61 µM							
c1ccc(C2CO2)cc1 (stereo not shown) [Styrene oxide, 8,9-styrene oxide]										150 µM	110 µM	160 µM	28%	Mixed cooperative substrate	55 µM	13%			
C=Cc1ccccc1 [Styrene, styrene]										45 µM	67 µM		20%	Mixed cooperative substrate	75 µM	11%	110 µM	18 µM	58 µM

From PMC3979932 (Xenobiotica; the fate of foreign compounds in biological …, 2013)
